Key:
Type in all cases: in vivo
[1] = tested on: common cocklebur (Xanthium strumarium L.); assay: post-emergence herbicidal activity, cocklebur; settings: 1 Kg/Ha, about fourteen days, read-out: post-emergence herbicidal activity (% control) XANPE
Outline: (§1)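 Percent control (0–100) was rated about fourteen days after spraying of emerged, germinated plants in flats with compound dissolved in water/acetone at 1 Kg/Ha.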

[2] = tested on: soybean (Glycine max -- var. Winchester); assay: post-emergence herbicidal activity, soybean; settings: 1 Kg/Ha, about fourteen days, read-out: post-emergence herbicidal activity (% control) SOY
Outline: as §1

[3] = tested on: velvetleaf (Abutilon theophrasti); assay: pre-emergence herbicidal activity, velvetleaf; settings: 1 kg/Ha, about fourteen days, read-out: pre-emergence herbicidal activity (% control) ABUTH
Outline: (§2)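 Seeds sown in soil flats and sprayed pre-emergence with a water/acetone solution of test compound at 1 kg/Ha; untreated controls kept alongside. Phytotoxicity scored after about fourteen days as percent control, 0 being no effect and 100 complete control.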

[4] = tested on: blackgrass (Aloepecurus myosuroides); assay: post-emergence herbicidal activity, blackgrass; settings: Alopecurus myosuroides, 1 Kg/Ha, about fourteen days, read-out: post-emergence herbicidal activity (% control) ALOMY
Experimental: This example sets forth the methods of herbicidal testing conducted on the specific compounds set forth below. Specifically, the compounds referenced below were tested for pre- and post-emergence herbicidal activity using a variety of crops and weeds. The test plants include, but are not limited to, soybean (Glycine max -- var. Winchester), field corn (Zea mays var. Pioneer 3732), wheat (Triticum aestivum var. Lew), morningglory (Ipomea lacunosa or Ipomea hederacea), velvetleaf (Abutilon theophrasti), green foxtail (Setaria viridis), Johnsongrass (Sorghum halepense), blackgrass (Aloepecurus myosuroides), common chickweed (Stellaria media), and common cocklebur (Xanthium strumarium L.).
In the post-emergence test, seeds of the plant species named above were planted in flats containing the appropriate soil mixture where they were maintained to allow the seeds to germinate. When the plants in these flats reached the proper stage of growth, flats for the pre-emergence tests were planted in a like manner. The flats containing the post-emergence and pre-emergence test plant species were then sprayed with an appropriately concentrated water/acetone solution of test compound. Once treated the flats were maintained, along with untreated controls, for about fourteen days. All treated plants were then examined for phytotoxicity, which was expressed as percent control where 0 is no effect and 100 is complete control. Effective rates of application for the compounds of the present invention range from 0.001 to 3 kg/ha, more likely from […] to 1 Kg/ha.
Herbicidal activity data at selected application rates are in Tables 4 and 5. The test compounds are identified by numbers correspond to those in Table 1.
SOY is soybean, WHT is wheat, CRN is corn, ABUTH is velvetleaf, IPOSS is
morningglory, STEME is chickweed, XANPE is cocklebur, ALOMY is blackgrass,
Rate of application of test compound is 1 Kg/Ha. The definitions as shown under Table 4 apply to Table 5.

[5] = tested on: common cocklebur (Xanthium strumarium L.); assay: pre-emergence herbicidal activity, cocklebur; settings: 1 kg/Ha, about fourteen days, read-out: pre-emergence herbicidal activity (% control) XANPE
Outline: as §2

[6] = tested on: field corn (Zea mays var. Pioneer 3732); assay: post-emergence herbicidal activity, corn; settings: 1 Kg/Ha, about fourteen days, read-out: post-emergence herbicidal activity (% control) CRN
Outline: as §1

[7] = tested on: morningglory (Ipomea lacunosa or Ipomea hederacea); assay: post-emergence herbicidal activity, morningglory; settings: Ipomoea, 1 Kg/Ha, about fourteen days, read-out: post-emergence herbicidal activity (% control) IPOSS
Outline: as §1

[8] = tested on: wheat (Triticum aestivum var. Lew); assay: pre-emergence herbicidal activity, wheat; settings: 1 kg/Ha, about fourteen days, read-out: pre-emergence herbicidal activity (% control) WHT
Outline: as §2

[9] = tested on: field corn (Zea mays var. Pioneer 3732); assay: pre-emergence herbicidal activity, corn; settings: 1 kg/Ha, about fourteen days, read-out: pre-emergence herbicidal activity (% control) CRN
Outline: as §2

[10] = tested on: common chickweed (Stellaria media); assay: pre-emergence herbicidal activity, chickweed; settings: 1 kg/Ha, about fourteen days, read-out: pre-emergence herbicidal activity (% control) STEME
Outline: as §2

[11] = tested on: velvetleaf (Abutilon theophrasti); assay: post-emergence herbicidal activity, velvetleaf; settings: 1 Kg/Ha, about fourteen days, read-out: post-emergence herbicidal activity (% control) ABUTH
Outline: as §1

[12] = tested on: morningglory (Ipomea lacunosa or Ipomea hederacea); assay: pre-emergence herbicidal activity, morningglory; settings: Ipomoea, 1 kg/Ha, about fourteen days, read-out: pre-emergence herbicidal activity (% control) IPOSS
Outline: as §2

[13] = tested on: wheat (Triticum aestivum var. Lew); assay: post-emergence herbicidal activity, wheat; settings: 1 Kg/Ha, about fourteen days, read-out: post-emergence herbicidal activity (% control) WHT
Outline: as §1

[14] = tested on: green foxtail (Setaria viridis); assay: pre-emergence herbicidal activity, green foxtail; settings: 1 kg/Ha, about fourteen days, read-out: pre-emergence herbicidal activity (% control) SETVI
Outline: as §2

[15] = tested on: green foxtail (Setaria viridis); assay: post-emergence herbicidal activity, green foxtail; settings: 1 Kg/Ha, about fourteen days, read-out: post-emergence herbicidal activity (% control) SETVI
Outline: as §1

[16] = tested on: common chickweed (Stellaria media); assay: post-emergence herbicidal activity, chickweed; settings: 1 Kg/Ha, about fourteen days, read-out: post-emergence herbicidal activity (% control) STEME
Outline: as §1

[17] = tested on: soybean (Glycine max -- var. Winchester); assay: pre-emergence herbicidal activity, soybean; settings: 1 kg/Ha, about fourteen days, read-out: pre-emergence herbicidal activity (% control) SOY
Outline: as §2

[18] = tested on: blackgrass (Aloepecurus myosuroides); assay: pre-emergence herbicidal activity, blackgrass; settings: Alopecurus myosuroides, 1 kg/Ha, about fourteen days, read-out: pre-emergence herbicidal activity (% control) ALOMY
Outline: as §2

| SMILES | activity at 1000 g/ha [1] | activity at 1000 g/ha [2] | activity at 1000 g/ha [3] | activity at 1000 g/ha [4] | activity at 1000 g/ha [5] | activity at 1000 g/ha [6] | activity at 1000 g/ha [7] | activity at 1000 g/ha [8] | activity at 1000 g/ha [9] | activity at 1000 g/ha [10] | activity at 1000 g/ha [11] | activity at 1000 g/ha [12] | activity at 1000 g/ha [13] | activity at 1000 g/ha [14] | activity at 1000 g/ha [15] | activity at 1000 g/ha [16] | activity at 1000 g/ha [17] | activity at 1000 g/ha [18] |
| --- | --- | --- | --- | --- | --- | --- | --- | --- | --- | --- | --- | --- | --- | --- | --- | --- | --- | --- |
| CCOC(=O)Cn1c(C(F)(F)F)cc(=O)n(-c2ccc(Cl)c3c2CN(C(C)C)C3=O)c1=O [Compound 74] | 20% | 40% | 5% | 30% | 30% | 30% | 30% | 0% | 0% | 10% | 20% | 20% | 10% | 5% | 10% | 20% | 5% | 10% |
| C#CCn1c(C(F)(F)F)cc(=O)n(-c2ccc(Cl)c3c2CN(C(C)C)C3=O)c1=O [Compound 75] | 85% | 60% | 100% | 100% | 95% | 50% | 50% | 100% | 95% | 100% | 100% | 100% | 70% | 100% | 45% | 100% | 100% | 95% |
| CC(C)N1Cc2c(-n3nc4n(c3=O)CCCC4)ccc(Cl)c2C1=O [Compound 83, 2-[7-chloro-2-(1-methylethyl)isoindolin-1-on-4-yl]-5,6,7,8-tetrahydro-1,2,4-triazolo[4,3-A]pyridin-3(2H)-one] | 60% | 80% | 100% | 50% | 30% | 60% | 90% | 10% | 0% | 100% | 100% | 60% | 30% | 60% | 60% | 80% | 5% | 50% |
| CC(C)N1Cc2c(-n3c(=O)cc(C(F)(F)F)n(Cc4ccccc4)c3=O)ccc(Cl)c2C1=O [Compound 73] | 75% | 90% | 100% | 70% | 70% | 75% | 80% | 69% | 90% | 100% | 100% | 40% | 50% | 100% | 60% | 100% | 95% | 70% |
